From US20160106102A1, “KNOWN AND NEW HETEROCYCLIC COMPOUNDS AS PEST CONTROL AGENTS” (BAYER CROPSCIENCE AKTIENGESELLSCHAFT, priority 2013, published 2016)
Where “and” joins values, the source holds several entries; their conditions need not be identical. Equal values may be shown once. Read-outs that look alike come from different tables or passages of the source.

Experiments:
Myzus persicae [1] = assay: Myzus persicae - sachet test; format: in vivo; settings: 100% = all animals killed; for pest or weed control at 6 ppm / pest or weed control at 30 ppm: Myzus persicae, read-out: efficacy (kill in %)
Summary of the method: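 Active ingredient dissolved with 2% N-methylpyrrolidone and 2% diacetone alcohol, diluted in water, then pipetted into nutrient medium. Plate sealed and paired with a plate carrying green peach aphids. Kill in % scored after the set time (100% = all dead, 0% = none dead).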

Phaedon cochleariae = Phaedon cochleariae - spray test (PHAECO); format: in vivo; settings: application rate of 500 g/ha; after 7 days; larvae of the mustard beetle on sprayed Chinese cabbage leaf discs; 100% = all larvae killed
Method: Phaedon cochleariae—Spray Test (PHAECO)
Solvent: 78.0 parts by weight of acetone • • 1.5 parts by weight of dimethylformamide
Emulsifier: alkylaryl polyglycol ether
To produce an appropriate active ingredient formulation, 1 part by weight of active ingredient is dissolved using the specified parts by weight of solvent and made up with water containing an emulsifier concentration of 1000 ppm until the desired concentration is attained. To produce further test concentrations, the preparation is diluted with emulsifier-containing water.
Discs of Chinese cabbage leaves (Brassica pekinensis) are sprayed with an active ingredient formulation of the desired concentration and, after drying, populated with larvae of the mustard beetle (Phaedon cochleariae).
After 7 days, the efficacy in % is determined. 100% means that all the beetle larvae have been killed; 0% means that no beetle larvae have been killed.

[2] = log P determination by LC-MS in the acidic range; format: physicochemical; settings: for log P (acid): LC-MS in the acidic range
Text: The LC-MS determination in the acidic range is effected at pH 2.7 using 0.1% aqueous formic acid and acetonitrile (contains 0.1% formic acid) as eluents, linear gradient from 10% acetonitrile to 95% acetonitrile. Alternatively, the determination is effected in the acidic range at pH 2.3 using 0.1% aqueous phosphoric acid and acetonitrile as eluents; linear gradient from 10% acetonitrile to 95% acetonitrile.

Myzus persicae [3] = assay: Myzus persicae - spray test; format: in vivo; settings: application rate of 500 g/ha, after 6 days, sprayed Chinese cabbage leaf discs infested by all stages, 100% = all aphids killed; for pest or weed control at 500 g/ha: Myzus persicae, foliar, 144 h, read-out: efficacy in %
Summary of the method: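 Chinese cabbage leaf discs infested with all stages of green peach aphid sprayed with compound in acetone/DMF formulation with alkylaryl polyglycol ether emulsifier, diluted in emulsifier-containing water. Efficacy (% aphids killed) assessed after 6 days.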

[4] = application rate of 6 ppm in nutrient medium
[5] = application rate of 30 ppm in nutrient medium
[6] = pH 2.7, LC-MS in the acidic range, read-out: log P (acid)
[7] = pH 2.7, values given in the synthesis examples and NMR lists, read-out: HPLC-MS: log P

SMILES | efficacy (kill in %) (Myzus persicae [1]; [4]) | efficacy (kill in %) (Myzus persicae [1]; [5]) | efficacy in % (Phaedon cochleariae) | log P (acid) [2] | efficacy in % (Myzus persicae [3]) | pest or weed control at 6 ppm (Myzus persicae [1]; [4]) | pest or weed control at 30 ppm (Myzus persicae [1]; [5]) | chromatographic logP [2, 6] | chromatographic logP [2, 7] | pest or weed control at 500 g/ha (Myzus persicae [3])
Cc1cc(N(C)C(=O)c2cccnc2)nn1Cc1ncccn1 [Compound I-1-346] | 100% | 100% | 100% | 0.63 | 100% |  |  |  |  | 
Cc1ccnc(Cn2nc(NC(=O)c3cccnc3)cc2C)n1 [Compound I-1-31] | 100% | 100% |  | 0.96 | 90% |  |  |  |  | 
O=C(Nc1cc(Br)n(Cc2ncccn2)n1)c1cccnc1 [Compound I-1-140, N-[5-Bromo-1-(pyrimidin-2-ylmethyl)-1H-pyrazol-3-yl]nicotinamide] |  |  |  |  |  | 100% | 100% | 1.1 | 1.1 | 90%
Cc1cc(NC(=O)c2cccnc2)nn1CC(F)(F)F [Compound I-1-133] | 100% | 100% |  | 1.32 | 90% |  |  |  |  | 
Cn1nc(NC(=O)c2cccnc2)cc1C(F)F [Compound I-1-221] | 100% | 100% |  | 1.04 | 90% |  |  |  |  | 
Cc1cc(NC(=O)c2cccnc2)nn1Cc1cccc(F)c1 [Compound I-1-60] | 100% | 100% |  | 1.9 | 100% |  |  |  |  | 
Cc1cc(Cn2nc(NC(=O)c3cccnc3)cc2C)no1 [Compound I-1-283] | 100% | 100% |  | 1.19 | 100% |  |  |  |  | 
Cc1cc(NC(=O)c2cccnc2)nn1Cc1nc2ccc(Cl)cc2o1 [Compound I-1-342] | 100% | 100% |  | 1.82 | 90% |  |  |  |  | 
Cc1cc(NC(=O)c2cccnc2)nn1Cn1c(C)nn(C)c1=O [Compound I-1-148] | 100% | 100% |  | 0.74 | 90% |  |  |  |  | 
O=C(Nc1ccn(-c2ccccn2)n1)c1cccnc1 [Compound I-1-52] | 100% | 100% |  | 1.32 | 90% |  |  |  |  | 
CC[S+]([O-])Cn1nc(NC(=O)c2cccnc2)cc1C (centres unmarked) [Compound I-1-245] | 100% | 100% |  | 0.45 | 100% |  |  |  |  | 
Cc1cc(NC(=O)c2cccnc2)nn1Cn1nccc1C(F)(F)F [Compound I-1-227] | 100% | 100% |  | 1.72 | 90% |  |  |  |  | 
Cc1cc(NC(=O)c2cccnc2)nn1-c1cccc(F)c1 [Compound I-1-202] | 80% | 100% |  | 1.85 | 90% |  |  |  |  | 
Cc1cc(NC(=O)c2cccnc2)nn1Cn1ccnn1 [Compound I-1-223] | 100% | 100% |  | 0.65 | 100% |  |  |  |  | 
Cc1cc(NC(=O)c2cccnc2)nn1-c1ncc(C(F)(F)F)cc1Cl [Compound I-1-44] | 100% | 100% |  | 2.2 | 100% |  |  |  |  | 
Cc1cc(NC(=O)c2cccnc2)nn1C(=O)OCC(F)(F)F [Compound I-1-259] | 100% | 100% |  | 1.79 | 90% |  |  |  |  | 
CCOCn1nc(NC(=O)c2cccnc2)cc1C [Compound I-1-2] | 100% | 100% |  | 1.1 | 100% |  |  |  |  | 
Cc1cc(NC(=O)c2cccnc2)nn1C(=O)N(C)C [Compound I-1-291] | 100% | 100% |  | 0.86 | 90% |  |  |  |  | 
Cc1cc(NC(=O)c2cccnc2)nn1Cc1ccccc1 [Compound I-1-46] | 100% | 100% |  | 1.79 | 100% and 90% |  |  |  |  | 
Cc1cc(NC(=O)c2cccnc2)nn1CCF [Compound I-1-5] | 100% | 100% |  | 0.84 | 90% |  |  |  |  | 
Cc1cc(NC(=O)c2cccnc2)nn1C(=O)c1cccnc1 [Compound I-1-28] | 100% | 100% |  | 1.57 | 90% |  |  |  |  | 
Cc1cc(NC(=O)c2cccnc2)nn1C(C)C#N (centres unmarked) [Compound I-1-214] | 100% | 100% |  | 0.92 | 100% |  |  |  |  | 
Cc1cc(NC(=O)c2cccnc2)nn1Cc1ccccn1 [Compound I-1-6] | 100% | 100% |  | 0.88 | 90% |  |  |  |  | 
Cc1cc(NC(=O)c2cccnc2)nn1Cc1ncccn1 [Compound I-1-1] | 100% | 100% |  | 0.77 | 90% |  |  |  |  | 
Cc1cc(NC(=S)c2cccnc2)nn1Cc1ncccn1 [Compound I-1-344] | 100% | 100% |  | 1.24 | 100% |  |  |  |  | 
Cc1cnn(Cn2nc(NC(=O)c3cccnc3)cc2C)c1 [Compound I-1-226] | 100% | 100% |  | 1.24 | 100% |  |  |  |  | 
CCC(=O)n1nc(NC(=O)c2cccnc2)cc1C [Compound I-1-129] | 100% | 100% |  | 1.56 | 90% |  |  |  |  | 
Cc1cc(NC(=O)c2cccnc2)nn1C(=O)OC(C)(C)C [Compound I-1-18, tert-Butyl 5-methyl-3-[(pyridin-3-ylcarbonyl)amino]-1H-pyrazole-1-carboxylate] |  |  |  |  |  | 100% | 100% | 2.04 | 2.04 | 100%
CCc1nn2c(=O)cc(Cn3nc(NC(=O)c4cccnc4)cc3C)nc2s1 [Compound I-1-352] |  | 100% |  | 1.23 | 90% |  |  |  |  | 
O=C(Nc1cc(C(F)(F)F)n(Cc2ncccn2)n1)c1cccnc1 [Compound I-1-196] | 100% | 100% |  | 1.46 | 90% |  |  |  |  | 
